Source: article PMC11056381, “Characterization and evaluation of cytotoxic and antimicrobial activities of cyclotides from Viola japonica” (Scientific Reports, 2024)
In brackets after ≈: the same amount, converted by molar mass. Residues, ends and D or L forms follow the SMILES beside them.

Columns and labels:
[1] = system: Staphylococcus aureus (CMCC(B)26003-2-10); experiment: MIC, broth dilution in 96-well plate; format: cell-based; details: 10^6 CFU/ml, overnight 37 °C, visual clarity, performed at least three times
Description: (§1) Cycloviolacin O2, known for its antimicrobial, hemolytic, and insecticidal activities, has been more extensively investigated[4],[20],[36]–[38]. Viba 11, originally discovered in Viola baoshanensis[39] and found in other plants such as Viola tricolor[40], Viola betonicifolia, and Viola philippica, lacks biological activity studies. These two cyclotides and vija 10 are high in content and easy to purify, and cycloviolacin O2 can also be used as a positive control to conduct activity study. In addition, few vija12 and 31 were extracted for antibacterial experiments. All purified cyclotides underwent antibacterial testing against Gram-positive bacterium Staphylococcus aureus (CMCC(B)26003-2-10) and Bacillus subtilis (CMCC(B)63501), Gram-negative bacteria, including Acinetobacter baumannii (ATCC19606), Escherichia coli (CMCC(B)44102-2-6), and Salmonella paratyphi (CMCC(B)50094-2-9). […] In addition, the MICs of viba 11, cycloviolacin O2 and vija 10 against B. subtilis were respectively 5.4 μM, 2.1 μM and 14.3 μM (Table 1). […] Therefore, it is hypothesized that the lower antimicrobial activity of vija 10 may be attributed to the presence of only one Lys residue in loop 5.
(§2) Bacterial fluids are cultured overnight at 37 °C. The next day, the bacterial liquids are diluted to a concentration of 10^6 CFU/ml. Prepare different concentrations of cyclotide drugs and kanamycin sulfate in advance, and sequentially add the drugs and bacterial liquid to the 96-well plate. Negative controls consisted of sterile water and bacterial liquid. The plate is cultured overnight at 37 °C and observe whether the solution remains clear to see the growth of the bacterial suspension. Each test was performed three times at least.

[2] = system: Salmonella paratyphi (CMCC(B)50094-2-9); experiment: MIC, broth dilution in 96-well plate; format: cell-based; details: 10^6 CFU/ml, overnight 37 °C, visual clarity, performed at least three times
Description: as §1, §2

Acinetobacter baumannii = experiment: DAPI/PI staining, laser scanning confocal microscopy (membrane integrity); format: cell-based; details: A. baumannii 10^8 CFU/mL, 37 °C, 1-2 h, DAPI and PI staining
Description: Many naturally occurring antimicrobial peptides (AMPs) are cationic. Cationic AMPs (CAMPs) exert bactericidal activity by mechanisms featuring cell membrane disruption. Cyclotides are likely to kill germ by disrupting their membranes. Laser scanning confocal microscopy can be used to study the ability of cyclotides to destroy bacterial membrane. 4′, 6-diaminyl-2-phenylindole (DAPI) is a blue fluorescent dye that can penetrate membranes and stain both living and dead strains, while propyl iodide (PI) stains only strains with damaged membranes, glowing red[46],[47]. In this study, the bracelet cyclotide family members viba 11 and vija 10 interacted with A. baumannii and B. subtilis in their logarithmic phase at 37 °C for 1–2 h. After the addition of DAPI and PI fluorescent dyes, the samples were incubated in a dark room at room temperature for 15 min for staining. The stained samples were then centrifuged to concentrate, resuspended, and applied to a slide for observation using a confocal laser scanning microscope (FLUOVIEW FV3000, Olympus). […] With increasing concentration, the blue and red fluorescence gradually overlapped. […] However, the magnification is not sufficient to detect further details of membrane disruption. Therefore, further exploration can be conducted using methods such as scanning electron microscopy (SEM) to study the antibacterial mechanism in depth.
Figure 5 Study on the antimicrobial mechanism of cyclotides. (A) Incubation of Acinetobacter baumannii with sterile water, 1 MIC and 4 MIC of viba 11. (B) Incubation of Bacillus subtilis with sterile water, 1 MIC and 4 MIC of vija 10. All samples were stained with DAPI and PI. The negative control group PI is not stained and the membrane is intact, while the membrane treated with cyclotides was stained and the membrane are destroyed. Scale bar: 20 μm. Magnification: 600×.
Take 50 μL of A. baumannii and B. subtilis (10^8 CFU/mL), and add 50 μL of sterile water, different concentrations of cyclotides viba 11 and vija 10 to achieve final concentrations of 1 MIC and 4 MIC respectively. Incubate at 37 °C for 1–2 h. Subsequently, add 4,6-diamino-2-phenylindole (DAPI) and propidium iodide (PI) dyes at 20 μg/mL each, and incubate in the dark for 15 min. Centrifuge at 5000 rpm for 3 min to concentrate, discard the majority of the supernatant, and resuspend the bacteria in the remaining small volume of liquid. Mix well and take 10 μL of the stained sample onto a glass slide, gently place a cover slip on top with forceps, avoiding the formation of bubbles during the pressing process. After sealing the cover slip, check with a laser confocal microscope, and the observation was conducted using an objective lens with the maximum magnification of 60 × . […]

[3] = system: 4T1 (mouse breast cancer cells); experiment: MTT cytotoxicity assay; format: cell-based; details: 4T1 cells, 48 h incubation, mean ± SD of at least three repeats
Method: (§3) Five types of cells, namely A549 (human non-small cell lung cancer cells), T24 (human bladder cancer cells), 4T1 (mouse breast cancer cells), 7402 (human hepatocellular carcinoma cells), and THLE-3 (human hepatocytes cells), are selected for evaluating the cytotoxicity of viba 11, cycloviolacin O2, and vija 10 using the MTT (3-(4,5-dimethylthiazol-2-yl)-2,5-diphenyltetrazolium bromide) reagent.
(§4) To determine cell toxicity using MTT assay, cells are seeded in a 96-well plate and cultured for 24 h. After that, different concentrations of cyclotides are added to the cells and incubated for 48 h. MTT is then added to react with the cells, and after 4 h, the reaction is terminated by discarding the supernatant and adding dimethyl sulfoxide for resuspension. The absorbance at 570 nm is measured after 10 min of shaking at room temperature. Each test was performed three times at least. The data were analyzed using GraphPad Prism 8. During this process, the drug concentrations were transformed into logarithmic form with a base of 10 and plotted on the x-axis. Cell viability (%) = [A (cyclotides) − A (blank)]/[A (control) − A (blank)] × 100, which was represented on the y-axis. Using this method, we determined the IC50 value for each experiment, with each experiment repeated at least three times and the mean value calculated. The error was represented by the standard deviation of the IC50 obtained from three repetitions.

[4] = system: 7402 (human hepatocellular carcinoma cells); experiment: MTT cytotoxicity assay; format: cell-based; details: 7402 cells, 48 h incubation, mean ± SD of at least three repeats
Method: as §3, §4

[5] = system: T24 (human bladder cancer cells); experiment: MTT cytotoxicity assay; format: cell-based; details: 48 h incubation, mean ± SD of at least three repeats
Method: as §3, §4

[6] = system: THLE-3 (human hepatocytes cells); experiment: MTT cytotoxicity assay; format: cell-based; details: THLE-3 cells, 48 h incubation, mean ± SD of at least three repeats
Method: as §3, §4

[7] = system: A549 (human non-small cell lung cancer cells); experiment: MTT cytotoxicity assay; format: cell-based; details: 48 h incubation, mean ± SD of at least three repeats
Method: as §3, §4

[8] = system: Escherichia coli (CMCC(B)44102-2-6); experiment: microbe, parasite or virus in culture; details: 10^6 CFU/ml, 96-well plate, overnight 37 °C, visual clarity, performed at least three times
Description: (§5) Viba 11, originally discovered in Viola baoshanensis[39] and found in other plants such as Viola tricolor[40], Viola betonicifolia, and Viola philippica, lacks biological activity studies. […] All purified cyclotides underwent antibacterial testing against Gram-positive bacterium Staphylococcus aureus (CMCC(B)26003-2-10) and Bacillus subtilis (CMCC(B)63501), Gram-negative bacteria, including Acinetobacter baumannii (ATCC19606), Escherichia coli (CMCC(B)44102-2-6), and Salmonella paratyphi (CMCC(B)50094-2-9).
as §2

[9] = system: Acinetobacter baumannii (ATCC19606); experiment: microbe, parasite or virus in culture; details: Acinetobacter baumannii ATCC19606; 10^6 CFU/ml, 96-well plate, overnight 37 °C, visual clarity; performed at least three times
Description: as §5, §2

[10] = system: Bacillus subtilis (CMCC(B)63501); experiment: microbe, parasite or virus in culture; details: 10^6 CFU/ml, 96-well plate, overnight 37 °C, visual clarity, performed at least three times
Description: as §5, §2

Q: CC[C@H](C)[C@@H]1NC(=O)[C@H](C)NC(=O)CNC(=O)[C@H](CO)NC(=O)[C@H]([C@@H](C)CC)NC(=O)[C@@H]2CSSC[C@@H]3NC(=O)[C@H](C(C)C)NC(=O)[C@H](CCCCN)NC(=O)[C@H](CO)NC(=O)[C@H](CCCCN)NC(=O)[C@@H]4CSSC[C@H](NC(=O)[C@H](CO)NC(=O)[C@H](CCC(=O)O)NC(=O)CNC(=O)[C@H](CSSC[C@H](NC(=O)CNC1=O)C(=O)N[C@@H](CO)C(=O)N4)NC(=O)[C@@H]1CCCN1C(=O)[C@H]([C@@H](C)CC)NC(=O)CNC(=O)[C@H](CC(N)=O)NC(=O)[C@H](CCCNC(=N)N)NC(=O)[C@H](Cc1ccc(O)cc1)NC3=O)C(=O)N[C@@H](C(C)C)C(=O)N[C@@H](Cc1c[nH]c3ccccc13)C(=O)N[C@@H]([C@@H](C)CC)C(=O)N1CCC[C@H]1C(=O)N2 [viba 11] (HELM PEPTIDE1{A.I.G.C.S.C.K.S.K.V.C.Y.R.N.G.I.P.C.G.E.S.C.V.W.I.P.C.I.S.G}$PEPTIDE1,PEPTIDE1,4:R3-18:R3|PEPTIDE1,PEPTIDE1,6:R3-22:R3|PEPTIDE1,PEPTIDE1,11:R3-27:R3|PEPTIDE1,PEPTIDE1,1:R1-30:R2$$$V2.0) was tested. Which MIC [1] did it give?
A: > 21.6 µM

Q: And the MIC [2]?
A: > 21.6 µM

Q: What about the “membrane integrity (PI red fluorescence)” value (Acinetobacter baumannii; 1 MIC) of the same molecule?
A: caused damage to the membrane integrity

Q: What about the “membrane integrity (PI red fluorescence)” value (Acinetobacter baumannii; 4 MIC) of the same molecule?
A: majority of the cell membranes were ruptured

Q: And the IC50 [3]?
A: 0.285 ± 0.01 µM

Q: What about the IC50 [4] of the same molecule?
A: 1.7 ± 0.05 µM

Q: What about the IC50 [5] of the same molecule?
A: 0.724 ± 0.17 µM

Q: And the IC50 [6]?
A: 1.609 ± 0.01 µM

Q: What about the IC50 [7] of the same molecule?
A: 0.195 ± 0.09 µM

Q: What about the MIC [8] of the same molecule?
A: > 21.6 µM

Q: And the MIC [9]?
A: 10.8 µM (≈ 33.6 µg/mL)

Q: What about the MIC [10] of the same molecule?
A: 5.4 µM (≈ 16.8 µg/mL)
